# Source: PMC4863456 (Journal of Chemical Information and Modeling, 2015)
# Assays:
# [1] = test system: CB1 M6.55A mutation; assay: Published binding data, M6.55A mutation; conditions: M6.55 to alanine
# [2] = test system: CB1 W5.43 mutated to alanine; conditions: W5.43 to alanine; cited from earlier work
# [3] = test system: CB1 K3.28 mutated to alanine; conditions: K3.28 to alanine; cited from earlier work
# [4] = test system: CB1 M6.55A mutation; conditions: M6.55 to alanine; cited from earlier work
smiles,measurement,setting,value
"Cc1c(C(=O)NN2CCCCC2)nn(-c2ccc(Cl)cc2Cl)c1-c1ccc(Cl)cc1 [rimonabant, N-(Piperidin-1-yl)-5-(4-Chlorophenyl)-1-(2,4-Dichlorophenyl)-4-Methyl-1H -Pyrazole-3-Carboxamide]","decrease in binding affinity upon mutation, as energy",[1],0.65 kcal/mol
same,decrease in experimental binding affinity upon mutation,[2],> 1000 fold
same,decrease in experimental binding affinity upon mutation,[3],17.2 fold
same,decrease in binding affinity upon mutation,[4],3 fold
